Values of other authors as cited in article PMC13515262 (Molecules, 2026).

Molecular target: T1, AChE (Electrophorus electricus, UniProt O42275)
T1 construct: The reaction was carried out using AChE serum obtained from the electric eel; from tissue; host or cells: 'serum' of the electric eel (so in the source)
Conditions: ref 39 (CAPE), 35 (Spiraeoside), 43 (olivetol), 36 (Vescalagin), 34 (Magnofluorine), 40 (taxifolin), 33 (coumestrol); read-out: Ki AChE (literature)

T1 sequence (O42275 24-633): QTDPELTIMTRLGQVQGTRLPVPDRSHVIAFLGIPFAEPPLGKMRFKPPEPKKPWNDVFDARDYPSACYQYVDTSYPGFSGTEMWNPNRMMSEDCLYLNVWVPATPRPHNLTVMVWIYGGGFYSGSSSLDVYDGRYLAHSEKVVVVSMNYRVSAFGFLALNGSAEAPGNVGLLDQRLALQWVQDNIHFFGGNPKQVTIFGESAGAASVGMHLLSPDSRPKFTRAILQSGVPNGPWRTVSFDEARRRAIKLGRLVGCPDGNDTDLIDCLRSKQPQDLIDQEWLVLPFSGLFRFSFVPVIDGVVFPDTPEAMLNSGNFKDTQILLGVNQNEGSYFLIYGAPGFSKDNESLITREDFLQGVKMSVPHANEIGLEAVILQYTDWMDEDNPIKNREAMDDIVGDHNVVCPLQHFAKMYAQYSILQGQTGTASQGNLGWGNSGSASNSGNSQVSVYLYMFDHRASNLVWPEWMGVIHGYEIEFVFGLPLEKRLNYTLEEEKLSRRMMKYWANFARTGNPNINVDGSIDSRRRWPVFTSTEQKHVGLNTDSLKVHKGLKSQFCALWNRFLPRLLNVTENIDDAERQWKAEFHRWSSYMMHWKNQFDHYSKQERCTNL

## O=c1c(O)c(-c2ccc(O[C@@H]3O[C@H](CO)[C@@H](O)[C@H](O)[C@H]3O)c(O)c2)oc2cc(O)cc(O)c12 [Spiraeoside]
  Ki: 3.4 nM

## O=C(/C=C/c1ccc(O)c(O)c1)OCCc1ccccc1 [CAPE, caffeic acid phenethyl ester]
  Ki: 0.518 nM
